Results on 3 molecules are retold here after patent US20170304388A1, “NEW INDICATION OF CARDIOVASCULAR DRUGS FOR PREPARATION OF CANCER INHIBITION PHARMACEUTICAL COMPOSITION” (LAUNX BIOMEDICAL CO., LTD., priority 2014, published 2017).

The viability is a read-out of living cells in per cent, often relative to untreated cells.

Assay type in all cases: cell-based
Data set [1] has as its system A375 (Amelanotic Melanoma). Kind of data set: Cell viability analysis (WST-1), A375. The following applies: Table 4, repeated experiments, drug 10 μM; for viability at 10 µM: Homo sapiens, A-375, 72 h, WST-1, read-out: survival rate (viability) of cancer cells, A375. In general terms: Formazan colour is commonly taken as a measure of viable cells.
The test system of data set [2] is HCT116 (Colorectal Carcinoma). Kind of data set: Cell viability analysis (WST-1), HCT116. To be noted: Table 4, repeated experiments, drug 10 μM; for viability at 10 µM: Homo sapiens, HCT-116, 72 h, WST-1, read-out: survival rate (viability) of cancer cells, HCT116.
Data set [3] deals with HepG2 (Hepatocellular Carcinoma). Briefly: Cell viability analysis (WST-1), HepG2. To be noted: Table 4, repeated experiments, drug 10 μM; for viability at 10 µM: Homo sapiens, HepG2, 72 h, WST-1, read-out: survival rate (viability) of cancer cells, HepG2.
The subject of data set [4] is HeLa (Cervix Adenocarcinoma). Kind of data set: Cell viability analysis (WST-1), HeLa. The following applies: Table 4, repeated experiments, drug 10 μM; for viability at 10 µM: Homo sapiens, HeLa, 72 h, WST-1, read-out: survival rate (viability) of cancer cells, HeLa.
The subject of data set [5] is AGS (Gastric Adenocarcinoma). Briefly: Cell viability analysis (WST-1), AGS. The following applies: 72 h, Table 4, repeated experiments, drug 10 μM, WST-1, read-out: survival rate (viability) of cancer cells, AGS.
For data set [6], the system named is H1650 (Lung Adenocarcinoma). Kind of data set: Cell viability analysis (WST-1), H1650. The following applies: Table 4, repeated experiments, drug 10 μM; for viability at 10 µM: Homo sapiens, NCI-H1650, 72 h, WST-1, read-out: survival rate (viability) of cancer cells, H1650.
Data set [7] has as its system MKN-45 (Gastric Adenocarcinoma). Briefly: Cell viability analysis (WST-1), MKN-45. The following applies: Homo sapiens, MKN-45, 72 h, Table 4, repeated experiments, drug 10 μM, WST-1, read-out: survival rate (viability) of cancer cells, MKN-45.
Data set [8] relates to TSGH-8301 (Urinary Bladder Carcinoma). Briefly: Cell viability analysis (WST-1), TSGH-8301. The following applies: 72 h, Table 4, repeated experiments, drug 10 μM, WST-1, read-out: survival rate (viability) of cancer cells, TSGH-8301.
Data set [9] deals with A549 (Lung Adenocarcinoma). Briefly: Cell viability analysis (WST-1), A549. To be noted: Table 4, repeated experiments, drug 10 μM; for viability at 10 µM: Homo sapiens, A549, 72 h, WST-1, read-out: survival rate (viability) of cancer cells, A549.
In data set [10] the test system is MCF7 (Mammary Gland, Adenocarcinoma). Briefly: Cell viability analysis (WST-1), MCF7. To be noted: Table 4, repeated experiments, drug 10 μM; for viability at 10 µM: Homo sapiens, MCF7, 72 h, WST-1, read-out: survival rate (viability) of cancer cells, MCF-7.
Data set [11] has as its system PC3 (Prostate Adenocarcinoma). Kind of data set: Cell viability analysis (WST-1), PC3. To be noted: Table 4, repeated experiments, drug 10 μM; for viability at 10 µM: 72 h, WST-1, read-out: survival rate (viability) of cancer cells, PC-3.
Data set [12] has as its system LoVo (Colorectal Adenocarcinoma). Briefly: Cell viability analysis (WST-1), LoVo. The following applies: Table 4, repeated experiments, drug 10 μM; for viability at 10 µM: Homo sapiens, LoVo, 72 h, WST-1, read-out: survival rate (viability) of cancer cells, LoVo.
The next data set relates to T24. Kind of data set: Cell viability analysis (WST-1), T24. The following applies: Homo sapiens, T-24, 72 h, Table 4, repeated experiments, drug 10 μM, read-out: survival rate (viability) of cancer cells, T24. The protocol: (§1) Subculture the different types of cancer cells. The cancer cells includes lung cancer, gastric cancer, hepatic cancer, colon cancer, skin cancer, cervical cancer, prostate cancer, bladder cancer, breast cancer, leukemia, pancreatic cancer, ovarian cancer, tongue cancer, osteosarcoma, and renal cancer. The cell numbers were counted and reseed as 2×10^6 in cell culture plate/flask. Then, the culture medium for culturing the cell lines was added to a volume of 10 ml, and the cells were cultured for 2-3 days. Then, the cells were suspended for loading into 96-well plates. The cell number was 3000 cells and the volume of the culture medium was 100 ul each well.
(§2) Removing the original culture medium from 96-well plate. Then add 100 μl of commercially drug at a concentration of 10 μM per well. After 72 hours, add the diluted WST-1 reagent to the well with 100 μl/well, and the diluted WST-1 reagent was acquired from the dilution of 9:1 medium and WST-1 stock reagent. Finally, the total volume of each well are 200 μl/well. Culture the 96-well plate at 37° C. for 30 to 90 minutes. Detecting and calculating the survival rate of each cancer cells with an ELISA reader at OD450 nm. The lower viability of cancer cells represents better inhibition effect via the drugs. Otherwise, the higher viability of cancer cells represents worse inhibition effect via the drugs.
(§3) According to the above mentioned cardiovascular drugs for cancer growth inhibition in Table 3, the inventors took the repeat experiments for the cardiovascular drugs to check the growth inhibitory effects of cancer cells by the cardiovascular drugs. […] 4.

A further data set relates to Hep3B. Briefly: Cell viability analysis (WST-1), Hep3B. To be noted: Table 4, repeated experiments, drug 10 μM; for viability at 10 µM: Homo sapiens, Hep3B, 72 h, read-out: survival rate (viability) of cancer cells, Hep3B. Here is the method: as §1, §2, §3
The next data set concerns C-33A. Kind of data set: Cell viability analysis (WST-1), C-33A. The following applies: Table 4, repeated experiments, drug 10 μM; for viability at 10 µM: Homo sapiens, C-33-A, 72 h, read-out: survival rate (viability) of cancer cells, C-33A. The protocol:
as §1, §2, §3

Another data set relates to MDA-MB231. Briefly: Cell viability analysis (WST-1), MDA-MB231. The following applies: Table 4, repeated experiments, drug 10 μM; for viability at 10 µM: Homo sapiens, MDA-MB-231, 72 h, read-out: survival rate (viability) of cancer cells, MDA-MB231.
Another data set has as its system NIH-OVCAR-3. Kind of data set: Cell viability analysis (WST-1), NIH-OVCAR-3. To be noted: Table 4, repeated experiments, drug 10 μM; for viability at 10 µM: Homo sapiens, OVCAR-3, 72 h, read-out: survival rate (viability) of cancer cells, NIH-OVCAR-3. The protocol:
as §1, §2, §3

The subject of a further data set is TOV-21G. Briefly: Cell viability analysis (WST-1), TOV-21G. The following applies: Table 4, repeated experiments, drug 10 μM; for viability at 10 µM: Homo sapiens, TOV21G, 72 h, read-out: survival rate (viability) of cancer cells, TOV-21G. The protocol:
as §1, §2, §3

Another data set concerns AsPC-1. Kind of data set: Cell viability analysis (WST-1), AsPC-1. To be noted: Table 4, repeated experiments, drug 10 μM; for viability at 10 µM: Homo sapiens, ASPC1, 72 h, read-out: survival rate (viability) of cancer cells, AsPC-1. Here is the method:
as §1, §2, §3

In another data set the test system is BxPC-3. Kind of data set: Cell viability analysis (WST-1), BxPC-3. To be noted: Homo sapiens, BXPC-3, 72 h, Table 4, repeated experiments, drug 10 μM, read-out: survival rate (viability) of cancer cells, BxPC-3. Here is the method:
as §1, §2, §3

A further data set deals with SAS. Kind of data set: Cell viability analysis (WST-1), SAS. The following applies: 72 h, Table 4, repeated experiments, drug 10 μM, read-out: survival rate (viability) of cancer cells, SAS. The protocol: as §1, §2, §3
The subject of a further data set is U2OS. Kind of data set: Cell viability analysis (WST-1), U2OS. The following applies: Homo sapiens, U2OS, 72 h, Table 4, repeated experiments, drug 10 μM, read-out: survival rate (viability) of cancer cells, U2OS. The protocol: as §1, §2, §3
Another data set relates to BCC. Briefly: Cell viability analysis (WST-1), BCC. The following applies: Table 4, repeated experiments, drug 10 μM; for viability at 10 µM: BCC, 72 h, read-out: survival rate (viability) of cancer cells, BCC.
The subject of a further data set is 786-O. Briefly: Cell viability analysis (WST-1), 786-O. The following applies: Homo sapiens, 786-0, 72 h, Table 4, repeated experiments, drug 10 μM, read-out: survival rate (viability) of cancer cells, 786-O. Here is the method:
as §1, §2, §3

As to `CCOC(=O)C1=C(COCCN)NC(C)=C(C(=O)OC)C1c1ccccc1Cl` (stereo not drawn) [Amlodipine (Norvase), Amlodipine], the “survival rate (viability) of cancer cells, A375” value in data set [1] (72 hours, WST-1) came to 81.58. In data set [2] (72 hours, WST-1), the “survival rate (viability) of cancer cells, HCT116” value is 91.96. Also, the “survival rate (viability) of cancer cells, HepG2” value in data set [3] (72 hours, WST-1) was 71.76. The “survival rate (viability) of cancer cells, HeLa” value in data set [4] (72 hours, WST-1) was determined as 86.96. Also, the viability at 10 µM was found to be 16.5% in data set [5]; 88.2% in [7]; 36.2% in data set [8]; 96.6% in the data set on T24; 86% in the data set with BxPC-3; 99.2% in the data set with SAS. Further, the viability at 10 µM in the data set with U2OS was determined as 78.9%; in the data set on 786-O, 81.4%. Besides, the “survival rate (viability) of cancer cells, H1650” value in data set [6] (72 hours, WST-1) is 72.01. Also, the “survival rate (viability) of cancer cells, A549” value in data set [9] (72 hours, WST-1) was 89.22. Also, the “survival rate (viability) of cancer cells, MCF-7” value in [10] (72 hours, WST-1) amounted to 63.42. Besides, in data set [11] (72 hours, WST-1), the “survival rate (viability) of cancer cells, PC-3” value stood at 85.88. Besides, the “survival rate (viability) of cancer cells, LoVo” value in data set [12] (72 hours, WST-1) is given as 90.33. For the same molecule, the “survival rate (viability) of cancer cells, Hep3B” value in the data set with Hep3B (72 hours) worked out at 99.22. Moreover, in the data set with C-33A (72 hours), the “survival rate (viability) of cancer cells, C-33A” value turned out to be 38.18. Besides, the “survival rate (viability) of cancer cells, MDA-MB231” value in the data set with MDA-MB231 (72 hours) amounted to 87.55. Moreover, the “survival rate (viability) of cancer cells, NIH-OVCAR-3” value with NIH-OVCAR-3 (72 hours) is 90.31. Further, the “survival rate (viability) of cancer cells, TOV-21G” value in the data set with TOV-21G (72 hours) is 61.32. Further, the “survival rate (viability) of cancer cells, AsPC-1” value in the data set with AsPC-1 (72 hours) is 89.04. The “survival rate (viability) of cancer cells, BCC” value in the data set on BCC (72 hours) stood at 74.9299.
Regarding `CC(C)n1c(/C=C/C(O)CC(O)CC(=O)O)c(-c2ccc(F)cc2)c2ccccc21` (stereo not drawn) [Fluvastatin sodium (Lescol), Fluvastatin sodium], the viability at 10 µM in data set [1] was 21.8%; in data set [2] it was 55%; in data set [3], 104%; in data set [4], 54.3%; in [5], 52%; in data set [6], 73.1%. The viability at 10 µM in data set [7] came out at 65.3%; in data set [8] it was 78.2%; in data set [9], 98.8%; in data set [10], 82.5%; in [11] it was 32.1%; in data set [12], 100%. Further, the viability at 10 µM in the data set with T24 was 71.8%; in the data set on Hep3B, 109%; in the data set on C-33A, 89.5%; with MDA-MB231, 43%; in the data set on NIH-OVCAR-3 it was 84.7%; with TOV-21G it was 50.5%. Besides, the viability at 10 µM in the data set on AsPC-1 came to 83.6%; in the data set on BxPC-3, 79.1%; in the data set on SAS, 81.5%; in the data set on U2OS, 91.2%; with BCC, 27%; with 786-O, 23.6%.
In the case of `C[C@@H]1O[C@@H](O[C@H]2C[C@@H](O)[C@]3(CO)[C@H]4[C@H](O)C[C@]5(C)[C@@H](C6=CC(=O)OC6)CC[C@]5(O)[C@@H]4CC[C@]3(O)C2)[C@H](O)[C@H](O)[C@H]1O` [Ouabain], the viability at 10 µM in data set [1] was determined as 18.4%; in [2] it was 15.9%; in data set [3], 38.1%; in data set [4], 23.1%; in data set [5], 16.6%; in [6], 38.7%. For the same molecule, the viability at 10 µM was 53% in data set [7]; 43.6% in data set [8]; 15.1% in data set [9]; 29.1% in data set [10]; 25.8% in data set [11]; 39.7% in data set [12]. The viability at 10 µM amounted to 17.6% with T24; 33.4% in the data set on Hep3B; 35.5% in the data set with C-33A; 44.5% in the data set with MDA-MB231; 42.3% with NIH-OVCAR-3; 15.9% in the data set on TOV-21G. For the same molecule, the viability at 10 µM in the data set with AsPC-1 came out at 20.1%; in the data set on BxPC-3 it was 27%; in the data set with SAS, 20.2%; in the data set on U2OS it was 22.8%; with BCC, 25.6%; in the data set with 786-O it was 14.5%.
